Results on one compound are retold here after patent US11827645B2, “Spiro-γ-Lactams, and preparation method and use thereof” (Chongqing University of Arts and Sciences, priority 2020, dated 2023).

Each structure is given as a SMILES string.

For this experiment, the system named is human pancreatic cell lines PANC. Description: MTT assay of cancer cell viability, PANC cells. It is filed as cell-based. The text has this: To evaluate potentials for developing a drug leading from the synthesized compounds, the MTT assay was used to measure cancer cell viability upon the drug treatment. Two cancer cell lines (PANC and U87) were selected, which are some of the representing solid tumor cell lines in the National Cancer Institute's 60 human tumor cell lines panel (see FIG. 1A).
Background: Tetrazolium assays rely on reduction of a dye to a coloured formazan, in cell work by metabolically active cells.

Turning to `Cc1cccc(C)c1N1C(=O)C2(C=CC(=O)N2c2ccc(CNC(=O)OC(C)(C)C)cc2)C2C(=O)c3ccccc3OC21` (centres unmarked) [Compound 6j, Tert-butyl (4-(1-(2,6-dimethylphenyl)-2,4,5′-trioxo-1,3a,4,9a-tetrahydro-2H-spiro[chromeno[2,3-b]pyrrole-3,2′-pyrrol]-1′(5′H)-yl)benzyl)carbamate], the anticancer activities entry (cancer cell viability, PANC) is “excellent anticancer activities”. Moreover, the IC50 (human pancreatic cell lines PANC) was determined as 92 nM.

One may read the IC50 as the concentration at which inhibition is half-maximal. Read a high IC50 as lower potency.
